Laboratory results as given in PubChem BioAssay AID1159565 (GlaxoSmithKline (GSK), 2015).
The source made the active and inactive calls. No rule for the calls is given here.

Test system: T. cruzi-infected H9C2 cardiomyocytes, high-content imaging
Experiment: anti-T. cruzi activity in infected cardiomyocytes – imaging, H9C2 host cardiomyocytes, host toxicity (AID 1159565);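 also: infected cells incubated 72 h after plating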
[1] = measured here: H9C2 host cell toxicity
[2] = measured here: amastigotes per cell

SMILES	IC50	IC50 [1] [nM]	IC50 [2] [nM]
CCNc1cc(-c2ccccn2)nc(Nc2ccccc2)n1	3200 nM	250	3200
CN(Cc1nc2c(C(=O)N3CCN(Cc4ccccc4)CC3)cccc2[nH]1)C1CCCc2cccnc21 (stereo not drawn)	500 nM	7900	500
COc1ccc(C(=O)Nc2cc(C(F)(F)F)ccc2N2CCOCC2)c(OC)c1	790 nM	> 50000	320
COc1ccc(-c2csc(NC(=O)c3ccc([N+](=O)[O-])s3)n2)cc1OC	100 nM	6300	79
Cc1ccccc1NS(=O)(=O)c1ccc2[nH]cc(C(=O)NC3CCCC3)c(=O)c2c1	32000 nM	20000	25000
Cc1cccc(N2CCCN(Cc3c[nH]c4ccccc34)CC2)n1	400 nM	2500	320
COc1ccccc1-c1c(C)[nH]c2nc(N)nc(C)c12	250 nM	> 50000	130
Cc1ccc(Nc2nc(C3CCCN3Cc3ccn[nH]3)cs2)nc1 (stereo not drawn)	2000 nM	10000	2000
COc1ccc2ncc(=O)n(CCN3CCOC(CNCc4ccc(C(F)(F)F)cc4F)C3)c2n1 (stereo not drawn)	1600 nM	> 50000	630
Cc1sc(C)c(C(F)(F)F)c1CNCCCNc1cc(=O)c2ccccc2[nH]1	1000 nM	> 50000	500
O=C(N1CCc2ccccc2CC1)C1(C(=O)N2CCC(n3c(=O)[nH]c4ncccc43)CC2)CC1	790 nM	> 50000	630
Clc1ccc(Sc2cnccc2N2CCOCC2)cc1	130 nM	> 50000	100
C=CCOCC1Cn2nc([N+](=O)[O-])nc2O1 (stereo not drawn)	1300 nM	> 50000	630
CNc1cc(Cn2c(C(=O)c3cc(C)cc(Cl)c3)c(C(C)C)c(=O)[nH]c2=O)ccn1	20 nM	> 50000	20
CCCN(Cc1ccc(OC)c(OC)c1)Cc1cc(=O)c2c(C)cc(C)cc2[nH]1	2000 nM	> 50000	500
O=C(Nc1nc(-c2ccccn2)cs1)c1ccccc1-n1cnnn1	3200 nM	5000	2000
FC(F)(F)c1cc(C2CCCN(Cc3c[nH]c4ccccc34)C2)nc2ncnn12 (stereo not drawn)	10000 nM	> 50000	6300
Cc1cc(-c2cccc3ccccc23)nc2nc(N)nc(N)c12	> 50000 nM (inactive)	> 50000	32000
CCCCN(C(=O)c1ccc(NC(=O)C(C)C)cc1)c1ccccc1	> 50000 nM (inactive)	> 50000	10000
CCCNC(=O)Nc1cccc(-c2nc3ncccc3o2)c1	4000 nM	25000	3200
O=S(=O)(NCC(c1cccnc1)N1CCN(c2ccccc2F)CC1)c1ccc(F)cc1 (stereo not drawn)	200 nM	> 50000	200
Cc1cc(Br)sc1CNCCCNc1cc(=O)c2ccccc2[nH]1	790 nM	25000	500
O=C(Nc1cccc(F)c1)N1CCC(Oc2cccc(-c3cccnc3)c2)CC1	630 nM	25000	500
O=C(CSc1ccc(F)cc1)N[C@@H](Cc1cnc[nH]1)C(=O)NCCc1ccccc1	500 nM	> 50000	500
COc1cc(F)c2ncc(F)c(CCN3CC[C@H](NCc4cc5c(cn4)OCS5)[C@@H](O)C3)c2c1	250 nM	> 50000	200
COc1cccc(C(=O)[C@H]2C[C@@H]2CN(Cc2ccccn2)Cc2ccccn2)c1	1300 nM	20000	790
